The test system of the test is 947758-054-R-J2-PDC spheroid growth, percent test/control. Nature of the test: Anticancer human tumor 947758-054-R-J2-PDC patient-derived colon adenocarcinoma cell line growth inhibition [CLK]. Conditions: spheroids with HUVEC and MSC; for viability, T/C: stronger effect = lower value; for IC50: curve of compound. An excerpt:
A high-throughput screen of multi-cell type tumor spheroids was designed to identify active combinations of […] and targeted small molecules. Complex spheroids include a stromal component modeled by human endothelial cells (HUVEC) and fibroblasts modeled by human mesenchymal stem cells (MSCs). The concentration ranges selected for each drug and investigational agent were based upon clinically achievable concentrations if the clinical Cmax of the agent was known.
Compounds. The drugs and investigational agents: cirtuvivint (SM08502; NSC835563), CC-671 (NSC850746), vemurafenib (NSC761431), tapotoclax (NSC804041), sotorasib (NSC818433), adagrasib (NSC831453), MRTX-1133 (NSC836407), BAY2416964 (NSC825713), copanlisib (NSC816437), inavolisib (NSC800729), abemaciclib (NSC768073), osimertinib (NSC779217), entinostat (NSC756642), eltanexor (KPT-8602, NSC794443), venetoclax (NSC766270), ceralasertib (NSC777638), bortezomib (NSC756655), olaparib (NSC753686), talazoparib (NSC767125), alisertib (NSC759677), peposertib (NSC802822), gemcitabine (NSC613327), 5-fluorouracil (NSC19893), SN-38 (NSC673596), oxaliplatin (NSC266046), paclitaxel (NSC125973), and doxorubicin (NSC123127), were obtained from the National Cancer Institute (NCI) Developmental Therapeutics Program Chemical Repository. The FDA-approved anticancer drug set is available from the Developmental Therapeutics Program at https://dtp.cancer.gov/organization/dscb/obtaining/available plates.htm. […] The stock solutions were prepared in dimethyl sulfoxide (DMSO, Sigma-Aldrich, St. Louis, MO, cat. D2650), except for the platinum complexes which were prepared in saline (Quality Biological, Gaithersburg, MD, cat. 114-055-101), at 800-fold the tested concentration and stored at -70 degrees C prior to their use. All drugs and investigational agents were tested over a range starting from a high concentration at or near the clinical Cmax and decreasing in half-log increments. If the clinical Cmax for an agent had not been determined, the highest concentration tested was 10 microM.
Cell Culture. All cells were maintained in an incubator at 37 degrees C and 5% CO2 with 95% humidity. The PDC lines were cultured according to standard operating procedures established by the NCI PDMR. Briefly, all PDCs were thawed and cultured in Matrigel-coated flasks prepared with a working solution of 1X Ham's F-12 nutrient mix, without supplementation (Invitrogen, Waltham, MA, cat. 11765054), 100 U/mL penicillin-streptomycin (Invitrogen, cat. 15140122), and 2.5% Matrigel (Corning Inc., Corning, NY, cat. 354248) for the first three passages. The 947758-054-R-J2-PDC line was cultured in 6B/Colon 1A media, which includes advanced DMEM/F-12 (Thermo Fisher Scientific, cat. 12634028), 10 mM HEPES (Thermo Fisher Scientific, cat. 15630080), 1X GlutaMAX supplement (Thermo Fisher Scientific, cat. 35050061), 0.1 mg/mL primocin (InvivoGen, cat. ant-pm-2), 10% defined fetal bovine serum, heat inactivated (HyClone Laboratories Inc., cat. SH30070.03HI), 1.25 mM N-Acetyl-L-cysteine (Sigma-Aldrich, cat. A9165), 10 mM nicotinamide (Sigma-Aldrich, cat. N0636), 1X B-27 supplement (Thermo Fisher Scientific, cat. 17504044), 1X N-2 supplement (Thermo Fisher Scientific, cat. 17502048), and 10 microM Y-27632 dihydrochloride (Tocris Bioscience, cat. 1254). The 876862-298-R-J1-PDC was cultured in 6E media, which includes all 6B/Colon 1A media components plus 50% L-WRN conditioned media (ATCC, cat. CRL-3276), 50 ng/mL recombinant human EGF recombinant protein (hEGF; Thermo Fisher Scientific, cat. PHG0311), 10 ng/mL recombinant human fibroblast growth factor 10 (hGFG-10; PeproTech, cat. 100-26), 1 ng/mL recombinant human fibroblast growth factor 2 (hFGF-2; PeproTech, cat. 100-18B), and 1 µM prostaglandin E2 (PGE2; Tocris, cat. 2296). The 227483-062-R1-J1-PDC line was cultured in Panc media, containing all 6E components except hFGF-2, with the addition of 500 nM SB-431542 (Selleckchem, cat. S1067) and 10 nM gastrin (Tocris, cat. 3006). […]

Molecules are shown by their SMILES. “And” between values parts separate entries of the source, which are not always exact repeats. Equal values may be shown once. A value given as a limit tells only on which side of the number the result lay.
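Note: spheroids exposed to compounds for one week before readout.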
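Throughout, for viability, T/C: 100% = DMSO vehicle control wells.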

The viability, T/C is the ratio of treated to control. Broadly, the IC50 is the midpoint of a concentration-inhibition curve. As to `CCN1CCN(Cc2ccc(Nc3ncc(F)c(-c4cc(F)c5nc(C)n(C(C)C)c5c4)n3)nc2)CC1`, the IC50 is 900 nM and > 1000 nM. Further, the viability, T/C (compound 0.00316 µM) was 81.3% and 94.8%. In addition, the viability, T/C (compound 0.01 µM) was 81.6% and 106%. In addition, under “compound 0.0316 µM”, the viability, T/C was 139% and 190%. For the same compound, the viability, T/C (compound 0.1 µM) is 164% and 182%. The viability, T/C (compound 0.316 µM) is 130% and 126%. Further, the viability, T/C (compound 1 µM) is 43% and 55.8%.

In the case of `CCc1c2c(nc3ccc(O)cc13)-c1cc3c(c(=O)n1C2)COC(=O)[C@]3(O)CC`, the IC50 is 8.48 nM and 7.07 nM. The viability, T/C (compound 0.00316 µM) was 120% and 84.1%. In addition, where the note is “compound 0.01 µM”, the viability, T/C is 34.2% and 32%. Moreover, the viability, T/C (compound 0.0316 µM) is 23.7% and 20.8%. For the same compound, where the note is “compound 0.1 µM”, the viability, T/C is 18.7% and 19%. Where the note is “compound 0.316 µM”, the viability, T/C is 8.36% and 8.83%. In addition, the viability, T/C (compound 1 µM) is 3.07% and 3.43%.

For the compound `CNC(=O)c1ccc(Nc2nc(OC3CCCC3)c3c(-c4ccc5nc(C)oc5c4)c[nH]c3n2)c(OC)c1`, the viability, T/C (compound 0.0316 µM) is 62.2% [middle of 12 runs]; the viability, T/C (compound 1 µM) was 56.2% [middle of 12 runs]; the viability, T/C (compound 3.16 µM) is 45.1% [middle of 12 runs]; the viability, T/C (compound 10 µM) was 36.8% [middle of 12 runs].

Consider `COC1C=CCC(C)C(C)S(=O)(=O)NC(=O)c2ccc3c(c2)N(CC2CCC21)CC1(CCCc2cc(Cl)ccc21)CO3` (stereo not drawn), for which the IC50 is 8140 nM and 8090 nM. Also, where the note is “compound 0.0316 µM”, the viability, T/C is 99.1% and 84.9%. Besides, the viability, T/C (compound 0.1 µM) was 77.1% and 86.7%. Besides, the viability, T/C (compound 0.316 µM) was 101% and 100%. The viability, T/C (compound 1 µM) was 75.3% and 81.2%. Further, the viability, T/C (compound 3.16 µM) was 94.4% and 83.8%. For the same compound, the viability, T/C (compound 10 µM) is 41.3% and 42.6%.

Take `COc1c(OCCCN2CCOCC2)ccc2c3n(c(=NC(=O)c4cnc(N)nc4)nc12)CCN3`: the IC50 was 246 nM and 224 nM. Where the note is “compound 0.00316 µM”, the viability, T/C was 107% and 111%. Further, the viability, T/C (compound 0.01 µM) was 80.8% and 104%. Where the note is “compound 0.0316 µM”, the viability, T/C is 111% and 105%. Further, the viability, T/C (compound 0.1 µM) was 90.1% and 72%. Besides, where the note is “compound 0.316 µM”, the viability, T/C was 38.9% and 41.3%. Also, the viability, T/C (compound 1 µM) was 23.1% and 22.7%.

In the case of `Cn1ncnc1[C@H]1c2n[nH]c(=O)c3cc(F)cc(c23)N[C@@H]1c1ccc(F)cc1`, the IC50 is > 100 nM. Moreover, under “compound 0.000316 µM”, the viability, T/C is 90.1% and 87.9%. Also, the viability, T/C (compound 0.001 µM) is 103% and 93.8%. Under “compound 0.00316 µM”, the viability, T/C is 96.8% and 101%. For the same compound, for the setting “compound 0.01 µM”, the viability, T/C was 96.7% and 94.4%. Also, under “compound 0.0316 µM”, the viability, T/C was 117% and 87.6%. The viability, T/C (compound 0.1 µM) was 130% and 119%.

Turning to `NC(=O)C(=Cn1cnc(-c2cc(C(F)(F)F)cc(C(F)(F)F)c2)n1)c1cncnc1`, the IC50 was 140 nM and 149 nM. Also, the viability, T/C (compound 0.00949 µM) was 101% and 94.5%. The viability, T/C (compound 0.03 µM) was 91% and 92.6%. Besides, the viability, T/C (compound 0.0949 µM) is 59.9% and 62.1%. For the same compound, under “compound 0.3 µM”, the viability, T/C is 28.5% and 28.9%. The viability, T/C (compound 0.949 µM) was 10.5% and 10%. Also, the viability, T/C (compound 3 µM) is 2.27% and 3.82%.

In the case of `Nc1ccccc1NC(=O)c1ccc(CNC(=O)OCc2cccnc2)cc1`, the IC50 is 5180 nM and 3660 nM. Further, the viability, T/C (compound 0.0316 µM) is 102% and 80.7%. Besides, the viability, T/C (compound 0.1 µM) was 105% and 97.2%. The viability, T/C (compound 0.316 µM) was 115% and 90.4%. The viability, T/C (compound 1 µM) is 96% and 121%. Also, the viability, T/C (compound 3.16 µM) is 77.7% and 55.5%. For the same compound, the viability, T/C (compound 10 µM) is 13.9% and 11.4%.
